The source of these data is patent US20100093723A1, “HETEROCYCLYL AND CYCLOALKYL SUBSTITUTED THIENO[2,3 d]PYRIMIDINE AND THEIR USE AS ADENOSINE A2a RECEPTOR ANTAGONISTS” (priority 2008, published 2010).

SMILES strings stand for the structures. Some results are limits rather than exact numbers.

The target in assay [1] is T1, human A2a adenosine receptor (Homo sapiens, UniProt P29274).
T1 construct: purchased PerkinElmer RB-HA2a; host or cells: HEK293 cell plasma membranes
Description: Ligand Binding Assay for Adenosine A2a Receptor (A2A-B). Particulars: plasma membrane of HEK293 cells, radioligand [3H]CGS21680; read-out: A2A-B_v3 Ki. On the procedure: Ligand Binding Assay for Adenosine A2a Receptor (A2A-B)
Ligand binding assay of adenosine A2a receptor was performed using plasma membrane of HEK293 cells containing human A2a adenosine receptor (PerkinElmer, RB-HA2a) and radioligand [^3H]CGS21680 (PerkinElmer, NET1021). Assay was set up in 96-well polypropylene plate in total volume of 200 μL by sequentially adding 20 μL 1:20 diluted membrane, 130 μL assay buffer (50 mM Tris.HCl, pH7.4 10 mM MgCl2, 1 mM EDTA) containing [^3H] CGS21680, 50 μL diluted compound (4×) or vehicle control in assay buffer. Nonspecific binding was determined by […] NECA. Reaction was carried out at room temperature for 2 hours before filtering through 96-well GF/C filter plate pre-soaked in 50 mM Tris.HCl, pH7.4 containing 0.3% polyethylenimine. Plates were then washed 5 times with cold 50 mM Tris.HCl, pH7.4, dried and sealed at the bottom. Microscintillation fluid 30 μL was added to each well and the top sealed. Plates were counted on Packard Topcount for [^3H]. Data was analyzed in Microsoft Excel and GraphPad Prism programs. (Varani, K.; Gessi, S.; Dalpiaz, A.; Borea, P. A. British Journal of Pharmacology, 1996, 117, 1693)

Assay [2] has as its target T2, human adenosine A1 receptor (Homo sapiens, UniProt P30542).
T2 construct: expressed in transfected cells; host or cells: CHO-K1
T2 sequence (P30542 1-326): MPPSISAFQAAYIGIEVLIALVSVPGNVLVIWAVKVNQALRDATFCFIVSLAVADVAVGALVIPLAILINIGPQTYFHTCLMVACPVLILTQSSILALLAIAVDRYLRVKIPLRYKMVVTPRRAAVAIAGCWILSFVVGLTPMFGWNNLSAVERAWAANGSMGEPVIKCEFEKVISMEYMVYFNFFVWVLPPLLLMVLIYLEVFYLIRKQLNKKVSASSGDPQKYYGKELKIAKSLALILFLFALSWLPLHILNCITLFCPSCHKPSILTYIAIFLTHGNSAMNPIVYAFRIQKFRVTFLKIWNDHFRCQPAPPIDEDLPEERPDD
Description: Adenosine A1 Receptor Functional Assay (A1GAL2). Format: cell-based. To be noted: CHO-K1 cells overexpressing human A1 receptor, cAMP inducible beta-galactosidase reporter, 4 nM r-PIA/1 uM Forskolin agonist challenge; read-out: A1GAL2_v3 Ki. On the procedure:
Adenosine A1 Receptor Functional Assay (A1GAL2)
(§1) To initiate the functional assay, cryopreserved CHO-K1 cells overexpressing the human adenosine A1 receptor and containing a cAMP inducible beta-galactosidase reporter gene were thawed, centrifuged, DMSO containing media removed, and then seeded with fresh culture media into clear 384-well tissue culture treated plates (BD #353961) at a concentration of 10K cells/well. Prior to assay, these plates were cultured for two days at 37° C., 5% CO2, 90% Rh. On the day of the functional assay, culture media was removed and replaced with 45 uL assay medium (Hams/F-12 Modified (Mediatech # 10-080CV) supplemented w/0.1% BSA). Test compounds were diluted and 11 point curves created at a 1000× concentration in 100% DMSO. Immediately after addition of assay media to the cell plates, 50 nL of the appropriate test compound antagonist or agonist control curves were added to cell plates using a Cartesian Hummingbird. Compound curves were allowed to incubate at room temperature on cell plates for approximately 15 minutes before addition of a 4 nM r-PIA (Sigma P4532)/1 uM Forskolin (Sigma F3917) agonist challenge (5 uL volume). A control curve of r-PIA in 1 uM Forskolin, a DMSO/Media control, and a single dose of Forskolin were also included on each plate. After additions, cell plates were allowed to incubate at 37° C., 5% CO2, 90% Rh for 5.5-6 hours. After incubation, media was removed, and cell plates were washed 1×50 uL with DPBS w/o Ca & Mg (Mediatech 21-031-CV). Into dry wells, 20 uL of 1× Reporter Lysis Buffer (Promega E3971 (diluted in dH2O from 5× stock)) was added to each well and plates frozen at −20° C. overnight. For β-galactosidase enzyme colorimetric assay, plates were thawed out at room temperature and 20 μL 2× assay buffer (Promega) was added to each well. Color was allowed to develop at 37° C., 5% CO2, 90% Rh for 1-1.5 h or until reasonable signal appeared. The colorimetric reaction was stopped with the addition of 60 μL/well 1M sodium carbonate. Plates were counted at 405 nm on a SpectraMax Microplate Reader (Molecular Devices). Data was analyzed in Microsoft Excel and IC/EC50 curves were fit using a standardized macro.

The target in assay [3] is T3, human adenosine A2a receptor (Homo sapiens, UniProt P29274).
T3 construct: expressed in transfected cells; host or cells: CHO-K1
Description: Adenosine A2a Receptor Functional Assay (A2AGAL2). Format: cell-based. To be noted: CHO-K1 cells overexpressing human A2a receptor, cAMP inducible beta-galactosidase reporter, 15 nM NECA agonist challenge; read-out: A2AGAL2_v4 Ki. On the procedure:
Adenosine A2a Receptor Functional Assay (A2AGAL2)
as §1, with “adenosine A2a” for “adenosine A1”, “a 15” for “a 4”, “nM NECA” for “nM r-PIA”, “(Sigma E2387)” for “(Sigma P4532)/1 uM Forskolin (Sigma F3917)”, “of NECA,” for “of r-PIA in 1 uM Forskolin,”, “Forskolin (Sigma F3917)” for “Forskolin”

T3 sequence (P29274 whole entry): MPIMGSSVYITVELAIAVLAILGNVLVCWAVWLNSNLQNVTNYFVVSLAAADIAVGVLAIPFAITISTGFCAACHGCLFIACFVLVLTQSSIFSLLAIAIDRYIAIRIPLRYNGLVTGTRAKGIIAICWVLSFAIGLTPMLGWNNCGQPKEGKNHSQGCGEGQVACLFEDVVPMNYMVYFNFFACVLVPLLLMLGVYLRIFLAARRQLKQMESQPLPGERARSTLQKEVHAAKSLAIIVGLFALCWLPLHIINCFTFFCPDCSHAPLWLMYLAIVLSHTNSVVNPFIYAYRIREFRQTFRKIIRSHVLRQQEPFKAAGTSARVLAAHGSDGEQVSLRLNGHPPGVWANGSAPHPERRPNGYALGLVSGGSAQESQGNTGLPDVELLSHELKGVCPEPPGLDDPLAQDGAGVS
T1 sequence (P29274 whole entry): as above

On to `Cc1ccc(-c2nc(N)c3cc(CC4CCCCC4)sc3n2)o1` [Example 1, 6-Cyclohexylmethyl-2-(5-methyl-furan-2-yl)-thieno[2,3-d]pyrimidin-4-ylamine], for which the inhibitory constant (Ki) in assay [1] is 34.2 nM; in assay [2], 3770 nM; in assay [3] it was 77.3 nM.
With `Nc1nc(-c2ncco2)nc2sc(CCN3CCOCC3)cc12` [Example 3, 6-(2-Morpholin-4-yl-ethyl)-2-oxazol-2-yl-thieno[2,3-d]pyrimidin-4-ylamine], the inhibition constant Ki worked out at 18700 nM in assay [2] and 238 nM in assay [3].
For the compound `C[C@@H]1CCC[C@H](C)N1C[C@@H](O)c1cc2c(N)nc(-c3cccc(C#N)c3)nc2s1` [Example 7, 3-{4-Amino-6-[2-(2,6-dimethyl-piperidin-1-yl)-1-hydroxy-ethyl]-thieno[2,3-d]pyrimidin-2-yl}-benzonitrile], the inhibitory constant (Ki) in assay [2] amounted to 855 nM; in assay [3], 195 nM.
Turning to `N#Cc1cccc(-c2nc(N)c3cc([C@H](O)CN4CCOCC4)sc3n2)c1` [Example 6, 3-[4-Amino-6-(1-hydroxy-2-morpholin-4-yl-ethyl)-thieno[2,3-d]pyrimidin-2-yl]-benzonitrile], the Ki in assay [2] was determined as 317 nM; in assay [3] it was 29.8 nM.
Turning to `CC(C)(C)c1ccc(-c2nc(N)c3cc(CCN4CCOCC4)sc3n2)s1` [Example 2, 2-(5-tert-Butyl-thiophen-2-yl)-6-(2-morpholin-4-yl-ethyl)-thieno[2,3-d]pyrimidin-4-ylamine], the inhibition constant (Ki) is greater than 1310 nM in assay [2] and greater than 1490 nM in assay [3].
With `Cc1csc(-c2nc(N)c3cc(CCN4CCOCC4)sc3n2)n1` [Example 4, 2-(4-Methyl-thiazol-2-yl)-6-(2-morpholin-4-yl-ethyl)-thieno[2,3-d]pyrimidin-4-ylamine], the inhibition constant Ki in assay [2] came out at 2370 nM; in assay [3] it was 190 nM.
`N#Cc1cccc(-c2nc(N)c3cc(CCN4CCOCC4)sc3n2)c1` [Example 5, 3-[4-Amino-6-(2-morpholin-4-yl-ethyl)-thieno[2,3-d]pyrimidin-2-yl]-benzonitrile]: the figures for the inhibition constant Ki in assay [2] and in assay [3] were 594 nM and 40.1 nM, respectively.
